Test results as given in paper PMC12568646, “Enzymatic combinatorial synthesis of E-64 and related cysteine protease inhibitors” (Nature Chemical Biology, 2025).

Assays:
Cp1D = molecular target: T1, Cp1D (Aspergillus flavus, UniProt A0A7U2QR00); experiment: LC-MS of amide product formation; format: biochemical; settings: 5 mM agmatine, 10 mM ATP, 10 mM MgCl2, 50 mM sodium phosphate pH 8.0, 30 °C
T1 construct: gene F9C07_2276917; full-length intron-free ORF in pET28a, 6xHis-tagged, expressed in E. coli BL21(DE3)
T1 sequence (A0A7U2QR00 1-463): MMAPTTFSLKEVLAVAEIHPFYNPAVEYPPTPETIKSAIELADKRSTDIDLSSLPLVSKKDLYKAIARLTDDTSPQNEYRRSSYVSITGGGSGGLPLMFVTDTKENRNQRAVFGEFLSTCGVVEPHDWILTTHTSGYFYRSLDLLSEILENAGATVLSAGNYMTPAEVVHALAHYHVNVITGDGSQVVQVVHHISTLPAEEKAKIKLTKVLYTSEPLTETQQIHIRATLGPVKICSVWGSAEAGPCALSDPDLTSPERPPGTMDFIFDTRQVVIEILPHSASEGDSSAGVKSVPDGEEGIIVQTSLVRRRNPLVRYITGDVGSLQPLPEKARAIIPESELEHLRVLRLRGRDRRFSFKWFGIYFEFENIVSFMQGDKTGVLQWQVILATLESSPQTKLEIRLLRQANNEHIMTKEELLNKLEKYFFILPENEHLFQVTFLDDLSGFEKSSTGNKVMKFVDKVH

papain = molecular target: T2, papain (Carica papaya, UniProt P00784); experiment: X-ray co-crystal structure; format: binding; settings: covalent, active-site Cys25
T2 construct: mature native enzyme, twice-crystallized from papaya latex (Sigma)
T2 sequence (P00784 134-345): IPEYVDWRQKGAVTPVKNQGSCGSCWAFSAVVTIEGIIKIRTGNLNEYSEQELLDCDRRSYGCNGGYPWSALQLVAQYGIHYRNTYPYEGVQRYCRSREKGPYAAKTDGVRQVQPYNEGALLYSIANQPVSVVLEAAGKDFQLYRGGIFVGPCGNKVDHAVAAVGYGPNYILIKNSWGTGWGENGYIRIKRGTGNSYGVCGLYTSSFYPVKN

cathepsin B = molecular target: T3, cathepsin B (Homo sapiens, UniProt P07858); experiment: fluorogenic Z-Phe-Arg-AMC assay; format: biochemical; settings: 40 μM Z-Phe-Arg-AMC, citrate phosphate pH 5.5, 5 mM DTT, 37 °C; covalent, irreversible
T3 construct: gene CTSB

Cp1B = test system: T4, Cp1B; experiment: X-ray crystal structure, […] Å; parameters: species or system Aspergillus flavus; settings: ATP-binding site; crystal set up with ATP, MgCl2 and (±)-t-ES; MES also bound
T4 construct: full-length intron-free ORF in pET28a (pML8010), 6xHis-tagged, expressed in E. coli BL21(DE3); domains span residues 5-502

Structure (SMILES): CC[C@H](C)[C@H](NC(=O)[C@@H]1O[C@H]1C(=O)O)C(=O)O [(2R,3R)-t-ES-L-Ile]
- KM (apparent) (Cp1D): much more efficient compared to that toward (2R,3R)-t-ES-L-Ile

Structure (SMILES): NCCCCCCCCNC(=O)[C@@H](NC(=O)[C@H]1O[C@@H]1C(=O)O)C1CCC1 [(2S,3S)-t-ES-a9-b7]
- X-ray co-crystal structure (papain): (2S,3S)-t-ES-a9-b7 was observed to be bound covalently to the active site cysteine
- IC50 (cathepsin B): 14 ± 1.1 nM

Structure (SMILES): Nc1ncnc2c1ncn2[C@@H]1O[C@H](CO)[C@@H](O)[C@H]1O [adenosine]
- X-ray crystal structure, 2.7 Å (Cp1B): crystal structure of Cp1B complexed with adenosine and 2-morpholinoethanesulfonic acid (MES) was determined
